# Test: Inhibition of NOS in Sprague-Dawley rat brain by oxyhaemoglobin assay
Compound,IC50 [µM],pIC50
N#Cc1c2ccccc2cn1C12CC3CC(CC(C3)C1)C2,0.291,4.52
O=C(NC12CC3CC(CC(C3)C1)C2)c1n[nH]c2ccccc12,2.53,3.52
CNc1ccccc1C(=O)NC12CC3CC(CC(C3)C1)C2,–,2.53
CNc1ccccc1C(=O)OC12C3C4CC5C6C4C1C6C1(OCCCN12)C53 (centres undefined),–,2.93
O=C(O)c1n[nH]c2ccccc12,9.65,3.28
N#CSc1c2ccccc2cn1C12CC3CC(CC(C3)C1)C2,–,3.88
O=[N+]([O-])c1c2ccccc2cn1C12CC3CC(CC(C3)C1)C2,–,3.74
O=C(OC12C3C4CC5C6C4C1C6C1(OCCCN12)C53)c1n[nH]c2ccccc12 (centres undefined),0.35,4.22
N=C(N)NN [PIMAGEDINE],19.4,2.72

# — ChEMBL document CHEMBL1144247, “Fluorescent polycyclic ligands for nitric oxide synthase (NOS) inhibition” (Bioorg Med Chem, 2008)
